Source: publication PMC7822819, “Discovery of a new class of integrin antibodies for fibrosis” (Scientific Reports, 2021)

What was measured:
CHOK1-mαvβ3 cells = biological target: T1, CHOK1-mαvβ3 cells (Mus musculus, UniProt O54890+P43406); experiment: Cell adhesion assay (Epic) on vitronectin; format: cell-based; conditions: vitronectin matrix; in words
T1 construct: expressed in transfected cells
Procedure: (§1) For plate preparation, Epic 384-well assay plates (Corning #5040) were washed with OptiMEM (Gibco #31985-070) and coated with murine fibronectin (Abcam #ab92784) at a concentration of 0.1 μg/well for CHO-a5KO-mαvβ1 cells; murine vitronectin (Abcam #ab92727) at 0.075 μg/well for CHO-mαvβ3 cells; or murine vitronectin at 0.125 μg/well for CHO-mαvβ5 (all at a volume of 25 μl/well in OptiMEM), for 1 h. Coating solution was then removed by flicking and plates were washed with OptiMEM and blocked with 25 μl/well of assay buffer [1% Ovalbumin (Sigma #A5503-10G) in OptiMEM containing 1X Pen-Strep (Gibco #15140-148)]. A 5-min baseline reading was taken on a Corning Epic Plate Reader (Model: Epic BT-157900) before removing the assay buffer and adding cells pre-incubated with inhibitors. The Epic plate reader detects cellular mass redistribution (adhesion) on the plate surface as a picometer wavelength shift over time. […] Cells were incubated with the inhibitors for 1 h at RT with gentle rocking, after which 50 μL per well was transferred to the Epic assay plate, and a time course of cell adhesion was monitored for an additional 3 h.

CHOK1-mαvβ5 cells = biological target: T2, CHOK1-mαvβ5 cells (Mus musculus, UniProt O70309+P43406); experiment: Cell adhesion assay (Epic) on vitronectin; format: cell-based; conditions: vitronectin matrix; in words
T2 construct: expressed in transfected cells
T2 sequence (P43406 31-1044): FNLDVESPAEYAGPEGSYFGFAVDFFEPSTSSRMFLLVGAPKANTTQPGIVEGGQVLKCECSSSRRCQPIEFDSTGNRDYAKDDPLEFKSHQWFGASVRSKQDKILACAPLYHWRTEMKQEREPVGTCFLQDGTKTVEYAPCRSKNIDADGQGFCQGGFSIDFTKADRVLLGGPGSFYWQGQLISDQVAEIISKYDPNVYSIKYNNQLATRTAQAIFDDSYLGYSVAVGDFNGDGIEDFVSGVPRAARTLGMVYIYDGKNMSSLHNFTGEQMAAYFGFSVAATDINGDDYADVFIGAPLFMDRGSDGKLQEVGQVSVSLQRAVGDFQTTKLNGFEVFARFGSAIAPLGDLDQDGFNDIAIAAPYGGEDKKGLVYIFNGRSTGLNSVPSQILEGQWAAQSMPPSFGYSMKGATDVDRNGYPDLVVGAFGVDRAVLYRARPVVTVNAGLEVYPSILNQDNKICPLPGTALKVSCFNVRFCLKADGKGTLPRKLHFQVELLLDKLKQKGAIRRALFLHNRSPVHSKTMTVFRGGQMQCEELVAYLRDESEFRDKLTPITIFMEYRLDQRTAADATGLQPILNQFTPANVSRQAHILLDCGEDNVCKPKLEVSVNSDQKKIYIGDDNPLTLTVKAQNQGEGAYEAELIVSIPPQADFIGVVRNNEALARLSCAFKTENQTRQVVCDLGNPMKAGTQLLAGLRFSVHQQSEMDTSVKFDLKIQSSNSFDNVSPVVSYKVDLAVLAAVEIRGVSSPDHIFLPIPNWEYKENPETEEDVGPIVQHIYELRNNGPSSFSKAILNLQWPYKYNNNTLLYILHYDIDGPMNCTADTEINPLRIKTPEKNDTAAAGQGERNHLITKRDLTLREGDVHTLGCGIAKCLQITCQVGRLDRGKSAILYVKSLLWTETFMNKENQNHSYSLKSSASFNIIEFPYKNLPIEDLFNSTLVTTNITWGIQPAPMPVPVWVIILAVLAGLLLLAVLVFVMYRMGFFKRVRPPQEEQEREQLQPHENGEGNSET
T2 sequence (O70309 24-798): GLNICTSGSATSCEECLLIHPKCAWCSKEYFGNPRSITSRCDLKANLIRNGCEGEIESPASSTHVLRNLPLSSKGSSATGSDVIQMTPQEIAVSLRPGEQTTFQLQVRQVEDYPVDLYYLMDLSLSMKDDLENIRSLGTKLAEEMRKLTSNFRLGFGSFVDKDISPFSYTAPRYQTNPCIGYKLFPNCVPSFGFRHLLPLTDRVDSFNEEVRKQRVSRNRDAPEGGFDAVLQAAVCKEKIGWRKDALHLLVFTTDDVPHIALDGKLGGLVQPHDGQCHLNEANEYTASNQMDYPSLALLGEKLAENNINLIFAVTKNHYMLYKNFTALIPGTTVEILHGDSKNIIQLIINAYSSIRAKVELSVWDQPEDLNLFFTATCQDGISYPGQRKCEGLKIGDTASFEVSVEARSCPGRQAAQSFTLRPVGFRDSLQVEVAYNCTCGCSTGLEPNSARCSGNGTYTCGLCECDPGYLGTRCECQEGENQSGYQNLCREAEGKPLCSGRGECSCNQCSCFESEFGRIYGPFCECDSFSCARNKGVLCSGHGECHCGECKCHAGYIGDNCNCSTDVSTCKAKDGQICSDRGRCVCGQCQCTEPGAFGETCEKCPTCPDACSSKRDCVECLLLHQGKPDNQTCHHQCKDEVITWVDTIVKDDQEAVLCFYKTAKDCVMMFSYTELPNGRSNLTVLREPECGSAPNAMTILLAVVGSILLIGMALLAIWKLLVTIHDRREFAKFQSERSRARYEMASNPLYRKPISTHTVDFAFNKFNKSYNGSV
Procedure: as §1

mouse αvβ1 = mouse αvβ1 (Mus musculus, UniProt P09055+P43406); experiment: AlphaLISA integrin-ligand binding assay; format: biochemical; parameters: mαV 1 988; m β1 1 728; made in house; host or cells: Expi293; conditions: Fig. 4B; read-out: IC50 Mouse integrin AlphaLISA assays: mαvβ1
Sequence of mouse αvβ1 (P43406 31-988): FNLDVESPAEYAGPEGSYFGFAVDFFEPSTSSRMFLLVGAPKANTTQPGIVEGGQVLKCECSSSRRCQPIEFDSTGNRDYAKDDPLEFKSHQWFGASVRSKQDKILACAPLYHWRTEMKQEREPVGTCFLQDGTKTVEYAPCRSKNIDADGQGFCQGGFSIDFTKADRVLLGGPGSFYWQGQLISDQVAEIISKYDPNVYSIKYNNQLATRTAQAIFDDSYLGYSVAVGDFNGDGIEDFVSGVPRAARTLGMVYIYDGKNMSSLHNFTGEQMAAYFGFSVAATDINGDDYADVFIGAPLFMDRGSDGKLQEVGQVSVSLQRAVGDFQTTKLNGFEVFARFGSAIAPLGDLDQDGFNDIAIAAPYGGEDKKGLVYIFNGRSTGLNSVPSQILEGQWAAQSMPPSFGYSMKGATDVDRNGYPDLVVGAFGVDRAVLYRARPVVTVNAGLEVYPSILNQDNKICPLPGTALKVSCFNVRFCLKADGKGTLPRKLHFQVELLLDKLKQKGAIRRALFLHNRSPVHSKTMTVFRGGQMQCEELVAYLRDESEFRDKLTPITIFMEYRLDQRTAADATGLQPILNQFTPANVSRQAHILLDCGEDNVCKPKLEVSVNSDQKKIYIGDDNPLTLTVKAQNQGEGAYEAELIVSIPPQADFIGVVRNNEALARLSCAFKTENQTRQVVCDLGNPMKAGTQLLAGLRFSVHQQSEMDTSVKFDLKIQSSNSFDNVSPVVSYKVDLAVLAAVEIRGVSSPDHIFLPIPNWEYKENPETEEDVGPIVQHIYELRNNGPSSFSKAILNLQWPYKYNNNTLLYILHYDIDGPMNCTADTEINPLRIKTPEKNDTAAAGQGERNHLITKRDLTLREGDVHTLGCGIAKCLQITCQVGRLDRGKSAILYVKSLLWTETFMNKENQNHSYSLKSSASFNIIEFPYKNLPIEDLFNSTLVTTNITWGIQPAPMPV
Sequence of mouse αvβ1 (P09055 21-728): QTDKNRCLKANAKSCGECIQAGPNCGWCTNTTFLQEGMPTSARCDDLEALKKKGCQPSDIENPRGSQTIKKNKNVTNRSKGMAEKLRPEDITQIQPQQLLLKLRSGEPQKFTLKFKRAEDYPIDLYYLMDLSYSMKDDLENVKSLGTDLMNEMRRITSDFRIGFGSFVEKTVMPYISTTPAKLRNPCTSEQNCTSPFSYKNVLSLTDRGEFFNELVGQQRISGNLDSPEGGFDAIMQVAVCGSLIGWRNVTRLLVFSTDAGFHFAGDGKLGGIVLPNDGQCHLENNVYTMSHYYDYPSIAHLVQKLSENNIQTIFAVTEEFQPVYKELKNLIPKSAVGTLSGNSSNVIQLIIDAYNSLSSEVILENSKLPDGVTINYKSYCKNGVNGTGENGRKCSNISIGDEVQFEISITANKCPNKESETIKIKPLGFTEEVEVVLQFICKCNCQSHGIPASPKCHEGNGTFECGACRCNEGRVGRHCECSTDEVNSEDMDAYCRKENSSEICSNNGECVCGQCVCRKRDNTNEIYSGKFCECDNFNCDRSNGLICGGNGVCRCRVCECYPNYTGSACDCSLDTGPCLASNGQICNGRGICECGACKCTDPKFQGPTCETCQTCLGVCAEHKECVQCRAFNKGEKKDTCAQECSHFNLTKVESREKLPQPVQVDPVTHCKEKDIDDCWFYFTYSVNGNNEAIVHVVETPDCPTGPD
Procedure: In the AlphaLISA integrin assays, we used a HEPES based buffer (25 mM HEPES pH 7.4, 137 mM NaCl, 1 mM MgCl2, 1 mM MnCl2, 2 mM CaCl2, 2.7 mM KCl, and 0.05% Tween-20). Optimal assay conditions were determined with a titration of the reagents for signal noise ratio (S/N), linear range, etc. For the respective integrins, we used the final concentrations described in Supplemental Table S3. Briefly, the testing antibody (8 μL) was added as a 4x (of Final testing concentration) solution in the HEPES buffer described previously into a 384w AlphaPlate (Perkin Elmer #6005350). Then the integrin and ligand were added sequentially as 8x (4 μL each). Plates were sealed and incubated at room temperature for 2 h. Then 4 × acceptor bead solution (8 μL) was added, and the plates were resealed and incubated at RT for 1 h. Finally, 4 × (8 μL) donor beads solution was added in a darkened room and incubated for 45 min at room temperature. Plates were read on the Envision (Perkin Elmer) in AlphaScreen mode within 3 h of donor bead addition.
Supplemental Table S3. integrin AlphaLIS A assay reagents and conditions Human A l phal i sa Inte gri n A ssays: Fi nal Condi ti ons […]
( batch de pe nde nt) anti body A l phaLi sa A cce ptor havb1 1. 4 nM 1. 0 nMα - Fi brone cti n human Fi brone cti n n/a A cce ptor be ads/ Pe rki n 10. 0 ug/ m 10. 0 ug/ m […]
havb3 3. 0 nM 10. […]

T1 sequence (P43406 31-1044): as the sequence (P43406 31-1044) above
T1 sequence (O54890 26-787): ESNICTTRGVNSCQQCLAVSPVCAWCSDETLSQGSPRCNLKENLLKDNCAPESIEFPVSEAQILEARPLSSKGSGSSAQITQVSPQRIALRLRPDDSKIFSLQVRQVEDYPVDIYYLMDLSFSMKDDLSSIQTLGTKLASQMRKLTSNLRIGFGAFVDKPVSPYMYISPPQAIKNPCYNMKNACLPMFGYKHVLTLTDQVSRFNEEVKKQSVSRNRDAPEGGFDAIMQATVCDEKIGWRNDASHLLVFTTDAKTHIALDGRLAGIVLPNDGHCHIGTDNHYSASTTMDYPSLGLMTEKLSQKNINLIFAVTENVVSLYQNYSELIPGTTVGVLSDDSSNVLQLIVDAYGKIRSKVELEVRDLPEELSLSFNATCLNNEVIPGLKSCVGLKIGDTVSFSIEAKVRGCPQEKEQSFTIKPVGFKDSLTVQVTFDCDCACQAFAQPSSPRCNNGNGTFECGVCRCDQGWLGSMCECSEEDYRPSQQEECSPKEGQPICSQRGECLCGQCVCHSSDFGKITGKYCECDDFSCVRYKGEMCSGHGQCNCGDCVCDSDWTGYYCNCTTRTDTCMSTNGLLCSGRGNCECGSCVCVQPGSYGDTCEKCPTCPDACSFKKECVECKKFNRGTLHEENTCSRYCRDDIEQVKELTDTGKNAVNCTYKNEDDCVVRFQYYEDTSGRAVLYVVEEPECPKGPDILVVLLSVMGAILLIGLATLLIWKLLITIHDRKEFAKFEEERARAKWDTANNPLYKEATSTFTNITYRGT

In the case of `COc1ccc(C(CC(=O)O)N2CCN(CCCc3ccc4c(n3)NCCC4)C2=O)cn1` (stereo not drawn) [MK-0429], the “Effect on cell adhesion, mouse αvβ3” value (CHOK1-mαvβ3 cells) is reported as “decreased”, the “Effect on cell adhesion, mouse αvβ5” value (CHOK1-mαvβ5 cells) is reported as “decreased” and the IC50 (mouse αvβ1) is reported as 1.3 nM.
